pEC50, pIC50: −log10 of the molar value. Where two headings read alike, the source gives them in different places.
Key:
Test in all cases: Ca2+ mobilization, GFP-apoaequorin luminescence in CHO-K1 with Gα-16
[1] = test system: T1, S. kowalevskii Octopamine α; assay type: cell-based, Saccoglossus kowalevskii; details: agonist, HBSS, 1.8 mM Ca2+, 10 mM glucose
T1 construct: gene Octopamine alpha receptor; full-length in pcDNA3.1(+), expressed in CHO-K1 with Gα-16 and GFP-apoaequorin
From the text: Ca2+ mobilization, GFP-apoaequorin luminescence in CHO-K1 with Gα-16 on S. kowalevskii Octopamine α

[2] = target: T2, P. dumerilii Octopamine α (Platynereis dumerilii, UniProt A0A1J0F445); assay type: cell-based
T2 construct: full-length in pcDNA3.1(+), expressed in CHO-K1 with Gα-16 and GFP-apoaequorin
T2 sequence (A0A1J0F445 1-603): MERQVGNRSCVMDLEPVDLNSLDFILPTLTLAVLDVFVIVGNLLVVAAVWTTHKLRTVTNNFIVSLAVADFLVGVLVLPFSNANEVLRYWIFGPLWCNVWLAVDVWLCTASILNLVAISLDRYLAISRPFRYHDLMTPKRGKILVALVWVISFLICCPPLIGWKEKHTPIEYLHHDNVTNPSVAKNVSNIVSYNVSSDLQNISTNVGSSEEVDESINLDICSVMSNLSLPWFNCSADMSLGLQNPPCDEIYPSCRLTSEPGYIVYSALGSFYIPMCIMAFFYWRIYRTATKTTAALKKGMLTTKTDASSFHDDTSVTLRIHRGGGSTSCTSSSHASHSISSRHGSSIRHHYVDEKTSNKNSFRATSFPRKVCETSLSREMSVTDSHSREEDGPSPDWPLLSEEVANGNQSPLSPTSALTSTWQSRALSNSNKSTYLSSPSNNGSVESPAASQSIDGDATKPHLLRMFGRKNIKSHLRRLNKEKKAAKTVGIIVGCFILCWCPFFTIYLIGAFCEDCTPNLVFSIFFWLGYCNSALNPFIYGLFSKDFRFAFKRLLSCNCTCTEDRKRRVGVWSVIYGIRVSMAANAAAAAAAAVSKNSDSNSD
From the text: Ca2+ mobilization, GFP-apoaequorin luminescence in CHO-K1 with Gα-16 on P. dumerilii Octopamine α

P. dumerilii Tyramine-2 = target: T3, P. dumerilii Tyramine-2 (Platynereis dumerilii, UniProt A0A1J0F4P1); assay type: cell-based
T3 construct: full-length in pcDNA3.1(+), expressed in CHO-K1 with Gα-16 and GFP-apoaequorin
T3 sequence (A0A1J0F4P1 1-460): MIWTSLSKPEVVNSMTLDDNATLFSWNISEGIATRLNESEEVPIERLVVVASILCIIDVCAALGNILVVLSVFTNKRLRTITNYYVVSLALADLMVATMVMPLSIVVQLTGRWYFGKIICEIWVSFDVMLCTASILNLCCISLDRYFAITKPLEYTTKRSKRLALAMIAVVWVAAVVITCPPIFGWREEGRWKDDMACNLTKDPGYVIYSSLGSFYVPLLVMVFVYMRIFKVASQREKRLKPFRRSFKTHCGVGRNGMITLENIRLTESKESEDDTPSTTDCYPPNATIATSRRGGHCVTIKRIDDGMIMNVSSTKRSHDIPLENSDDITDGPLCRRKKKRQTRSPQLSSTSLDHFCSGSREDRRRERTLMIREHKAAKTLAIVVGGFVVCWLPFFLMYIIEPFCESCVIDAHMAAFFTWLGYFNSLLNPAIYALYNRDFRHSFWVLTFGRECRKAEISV
From the text: Ca2+ mobilization, GFP-apoaequorin luminescence in CHO-K1 with Gα-16 on P. dumerilii Tyramine-2

P. dumerilii Tyramine-1 = target: T4, P. dumerilii Tyramine-1 (Platynereis dumerilii, UniProt A0A0K0PUV5); assay type: cell-based
T4 construct: full-length in pcDNA3.1(+), expressed in CHO-K1 with Gα-16 and GFP-apoaequorin
T4 sequence (A0A0K0PUV5 1-428): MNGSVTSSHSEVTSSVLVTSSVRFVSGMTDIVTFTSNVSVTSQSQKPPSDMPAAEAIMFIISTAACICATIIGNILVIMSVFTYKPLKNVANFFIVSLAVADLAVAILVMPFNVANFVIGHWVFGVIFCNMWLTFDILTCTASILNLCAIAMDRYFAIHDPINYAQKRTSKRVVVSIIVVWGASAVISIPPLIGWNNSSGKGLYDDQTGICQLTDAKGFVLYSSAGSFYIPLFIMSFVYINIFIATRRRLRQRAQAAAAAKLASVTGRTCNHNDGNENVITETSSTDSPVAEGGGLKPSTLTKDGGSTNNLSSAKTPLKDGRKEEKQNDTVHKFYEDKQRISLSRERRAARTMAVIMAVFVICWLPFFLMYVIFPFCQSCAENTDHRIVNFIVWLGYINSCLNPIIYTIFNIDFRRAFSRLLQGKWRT
From the text: Ca2+ mobilization, GFP-apoaequorin luminescence in CHO-K1 with Gα-16 on P. dumerilii Tyramine-1

[3] = target: T5, S. kowalevskii Tyramine-2A (Saccoglossus kowalevskii, UniProt A0ABM0GNT8); assay type: cell-based
T5 construct: gene LOC100366600; full-length in pcDNA3.1(+), expressed in CHO-K1 with Gα-16 and GFP-apoaequorin
T5 sequence (A0ABM0GNT8 1-458): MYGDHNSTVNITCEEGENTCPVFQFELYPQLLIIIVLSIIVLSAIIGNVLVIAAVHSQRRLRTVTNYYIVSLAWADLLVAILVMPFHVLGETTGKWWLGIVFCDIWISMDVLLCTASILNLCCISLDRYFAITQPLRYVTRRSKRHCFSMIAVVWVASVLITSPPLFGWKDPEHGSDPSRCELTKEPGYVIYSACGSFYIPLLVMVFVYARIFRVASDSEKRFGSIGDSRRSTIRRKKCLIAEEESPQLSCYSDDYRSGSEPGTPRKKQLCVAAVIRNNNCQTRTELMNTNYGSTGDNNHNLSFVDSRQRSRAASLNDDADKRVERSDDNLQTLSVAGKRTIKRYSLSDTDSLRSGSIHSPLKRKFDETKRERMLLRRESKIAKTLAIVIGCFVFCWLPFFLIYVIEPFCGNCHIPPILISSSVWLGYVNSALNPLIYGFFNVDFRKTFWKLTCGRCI
From the text: Ca2+ mobilization, GFP-apoaequorin luminescence in CHO-K1 with Gα-16 on S. kowalevskii Tyramine-2A

[4] = target: T6, S. kowalevskii Tyramine-2B (Saccoglossus kowalevskii, UniProt A0ABM0LZ08); assay type: cell-based
T6 construct: gene LOC102801068; full-length in pcDNA3.1(+), expressed in CHO-K1 with Gα-16 and GFP-apoaequorin
T6 sequence (A0ABM0LZ08 1-489): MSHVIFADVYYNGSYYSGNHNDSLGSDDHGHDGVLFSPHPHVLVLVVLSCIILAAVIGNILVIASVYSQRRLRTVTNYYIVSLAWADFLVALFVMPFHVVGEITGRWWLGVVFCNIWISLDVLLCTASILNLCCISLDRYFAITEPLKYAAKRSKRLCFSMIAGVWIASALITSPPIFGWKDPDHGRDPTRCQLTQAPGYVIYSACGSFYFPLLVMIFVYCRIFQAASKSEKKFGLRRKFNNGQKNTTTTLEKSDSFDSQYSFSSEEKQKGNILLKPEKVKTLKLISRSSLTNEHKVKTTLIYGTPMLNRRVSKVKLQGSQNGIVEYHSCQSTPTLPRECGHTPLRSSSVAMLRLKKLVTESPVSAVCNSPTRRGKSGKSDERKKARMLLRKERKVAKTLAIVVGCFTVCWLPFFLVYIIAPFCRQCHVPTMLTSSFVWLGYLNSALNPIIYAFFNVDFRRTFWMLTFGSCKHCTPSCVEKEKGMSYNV
From the text: Ca2+ mobilization, GFP-apoaequorin luminescence in CHO-K1 with Gα-16 on S. kowalevskii Tyramine-2B

[5] = target: T7, S. kowalevskii Tyramine-1 (Saccoglossus kowalevskii, UniProt A0ABM0H1U8); assay type: cell-based
T7 construct: gene LOC100368763; full-length in pcDNA3.1(+), expressed in CHO-K1 with Gα-16 and GFP-apoaequorin
T7 sequence (A0ABM0H1U8 1-430): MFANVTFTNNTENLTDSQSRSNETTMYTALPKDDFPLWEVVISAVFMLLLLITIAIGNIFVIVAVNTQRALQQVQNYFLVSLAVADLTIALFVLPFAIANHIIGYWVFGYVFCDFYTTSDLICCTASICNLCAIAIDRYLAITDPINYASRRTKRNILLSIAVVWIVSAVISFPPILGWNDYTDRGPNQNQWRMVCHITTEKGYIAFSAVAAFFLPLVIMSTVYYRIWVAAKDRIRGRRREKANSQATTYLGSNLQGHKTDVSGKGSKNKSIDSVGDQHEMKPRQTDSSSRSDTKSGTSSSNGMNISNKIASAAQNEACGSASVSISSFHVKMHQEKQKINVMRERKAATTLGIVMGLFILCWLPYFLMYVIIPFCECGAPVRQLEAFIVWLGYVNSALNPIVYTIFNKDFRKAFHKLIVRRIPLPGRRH
From the text: Ca2+ mobilization, GFP-apoaequorin luminescence in CHO-K1 with Gα-16 on S. kowalevskii Tyramine-1

## Clc1cccc(Cl)c1NC1=NCCN1 [clonidine]
[1]; read-out: Clonidine
  pEC50: 6.80
[2]; read-out: Clonidine
  pEC50: 6.85

## NC[C@H](O)c1ccc(O)cc1 [octopamine]
[1]; read-out: Octopamine
  pEC50: 6.16
[2]; read-out: Octopamine
  pEC50: 6.59

## NCCc1ccc(O)cc1 [tyramine]
P. dumerilii Tyramine-2
  pEC50: 8.15
P. dumerilii Tyramine-1
  pEC50: 7.96
[3]
  pEC50: 9.00
[4]
  pEC50: 8.23
[5]
  pEC50: 4.07

## COC(=O)[C@@H]1[C@H]2C[C@H]3c4[nH]c5ccccc5c4CCN3C[C@@H]2CC[C@@H]1O [yohimbine]
[2]; read-out: Yohimbine
  pIC50: 8.05

From article PMC5282848, “Ancient coexistence of norepinephrine, tyramine, and octopamine signaling in bilaterians” (BMC Biology, 2017)
